Patent US6780848B2, “Use of GPE to protect glial cells or non-dopaminergic cells from death from neural injury or disease” (NeuronZ, Ltd., priority 1993, dated 2004)

How the values were obtained:
[1] = system: hypoxic-ischemic injury, 21 day old Wistar rats; settings: rat, in vivo, ip
Protocol: The objective of this study was to compare the effects of treatment with GPE to that of a vehicle given 2 hours after an hypoxic-ischemic injury. The dose range of 2 to 200 μg was chosen to span a range of systemic doses that are greater than that required centrally (see experiment 3).
Unilateral hypoxic-ischemic injury was induced in 21 day old, 45±5 g Wistar rats. The rats underwent unilateral carotid ligation under light halothane anaesthesia.
Following one hour recovery they were placed in an incubator at 34 deg C. 85±5% humidity for one hour before the injury. They were subjected to 1 min inhalation hypoxia (FiO2 8.0%) and then returned to room temperature (22 deg C.) and normoxia. […]
Surviving and dead neurons were discriminated using the thionin/acid fuchsin staining technique (Guan et al J Cereb Blood Flow Metab. 13:609-616 (1993). The results, in which the height of a point is given by the ratio as a percentage of live neurones in the CA1-2 region on the right side to the number on the left side are shown in FIG. 5. Column A is vehicle, column B is 2 μg of GPE, column C is 20 μg of GPE, and column D is 200 μg of GPE. In this figure, the P value (0.031) was calculated by a method using one way ANOVA comparing many groups after Arcsin transformation.

[2] = system: hypoxic-ischemic injury to one cerebral hemisphere, adult Wistar rats; test: Experiment 1: IGF-1 and/or MK801 2 hours after unilateral hypoxic-ischemic injury, histology at 120 hours; type: in vivo, rat; settings: treatment 2 hours after hypoxia, IGF-1 50 μg intraventricular, MK801 1 mg, controls 65%
Protocol: One carotid artery was ligated and the animal was subjected two hours later to a defined period of inhalational hypoxia. The degree, length of hypoxia, ambient temperature and humidity were defined to standardise the degree of damage. They were sacrificed five days later for histological analysis using stains (acid-fuchsin) specific for necrotic neurons.
Adult Wistar rats (68 280-320 g) were prepared under 3% halothane/O2 anaesthesia. The right side carotid artery was ligated. A guide cannula was placed on the dura 8.2 mm anterior from bregma and 1.4 mm from midline on the right. The rats were allowed to recover from anaesthesia for 1 hour and were then placed in an incubator with humidity 85±5% and temperature 34±0.5C. for 1 hour before hypoxia. Oxygen concentration was reduced and maintained at 6±0.2 02% hypoxia for 10 minutes. […] Fifty micrograms of IGF-1 or vehicle alone (0.1% BSA in 0.15M PBS (pH 7.3)) were given via intra-ventricular (IVC) infusion. […] The intraventricular injections of 50 μg IGF-1 or vehicle alone were made into the right lateral ventricle at 1 μl/minute under 1.5%-2% halothane anaesthetic. […] The presence of cortical infarction, defined as a region of tissue death or parenchymal pan-necrosis due to death of glia as well as neurons, was determined via light microscopy by an assessor who was blinded to the experimental groupings.

[3] = system: ischemic brain injury, late gestation fetal sheep; settings: ischemic model in fetal sheep; Tan et al Ann Neurol 32:677-682 (1992); cited from earlier work
[4] = system: ischemic brain injury, late gestation fetal sheep; test: Experiment 2: IGF-1 into lateral ventricle 2 hours after 30 minutes of brain ischemia in fetal sheep; type: in vivo
Description: The objective of this study was to compare the effects of treatment either with IGF-1 (see FIG. 2) and previously published work with the NMDA antagonist MK810 after an ischemic brain injury on postischernic seizures and neuronal losses in fetal sheep. (Tan et al Ann Neurol 32:677-682 (1992)).
The methods were those of an earlier study (Tan et al Ann Neurol 32:677-682 (1992)). Briefly, late gestation fetal sheep were chronically instrumented to record EEG, nuchal activity and blood pressure, and were then returned to the uterus. Cortical EEG activity, nuchal activity and blood pressure were recorded throughout he experiment and the fetal brain subjected to 30 minutes of ischemia. Two hours later they were treated by an infusion of either 1 μg IGF-1 (n=6) or vehicle (artificial CSF) (n=6) into the lateral ventricle. Five days later the brains were fixed and assessed for neuronal loss as described previously (Tan et al Ann Neurol 32:677-682 (1992)).
In all cases the vehicle is the left-hand column and the effects of 1 μg of IGF-1 is on the right.

For `NCC(=O)N1CCC[C@H]1C(=O)N[C@@H](CCC(=O)O)C(=O)O` [GPE, gly-pro-glu], the “passage of the blood-brain barrier” value [1] was “can cross the blood-brain barrier”.

In the case of `C[C@]12N[C@H](Cc3ccccc31)c1ccccc12` [MK801, reference compound], the “incidence of cortical infarction” value [2] is reported as 50%.

In the case of insulin-like growth factor 1 [IGF-1], the “suppression of cortical electroencephalographic activity” value [3] is listed as “did not suppress cortical electroencephalographic activity”, the “suppression of postischemic seizure activity” value ([4]; 1 μg IGF-1 2 h after ischemia) is listed as “did not suppress the postischemic seizure activity” and the “neuronal rescue (neuronal loss scores)” value ([4]; 1 μg IGF-1 into lateral ventricle 2 h after 30 minutes ischemia, assessed five days later) is listed as “rescued neurons”. The “incidence of cortical infarction” value [2] was 33%.
